Test results as given in publication PMC5081701, “Identification of New Structural Fragments for the Design of Lactate Dehydrogenase A Inhibitors” (Acta Naturae, 2016).

Target: T1, LDH from rabbit muscle (LDH-A) (Oryctolagus cuniculus, UniProt P13491)
T1 construct: gene LDHA; native commercial enzyme from rabbit muscle (Sigma-Aldrich), homotetramer
Assay: spectrophotometric NADH absorbance decrease at […] nm, initial rate
Assay type: biochemical

IC50: 1200 µM
SMILES: O=S(=O)(O)CCSc1nc2ccccc2s1 [compound 4, 2-(benzothiazol-2-ylsulfanyl)-ethanesulfonate]
